Laboratory results taken from patent US20230098995A1 (SYNGENTA CROP PROTECTION AG, priority 2020, published 2023).

Each molecule was assayed on Corynespora cassiicola (assay: Corynespora cassiicola liquid culture growth inhibition (microtiter plate, PDB)). Details: photometric at 620 nm after 3-4 days at 24 C, compared to untreated control.
Type: cell-based
Method: Conidia of the fungus from cryogenic storage were directly mixed into nutrient broth (PDB potato dextrose broth). A DMSO solution of the test compounds was placed into a microtiter plate (96-well format) and the nutrient broth containing the fungal spores was added to it. The test plates were incubated at 24 C and the inhibition of growth (% control of Corynespora cassiicola) was determined photometrically after 3-4 days at 620 nm. The activity of a compound is derived by comparing the inhibition of growth in the treated test solution to the growth in the untreated check. The concentration of the compounds was 6.7, 2.2, 0.74, 0.25, 0.082 and 0.027 ppm.
`C[C@@](Cc1ccccc1)(CC(F)(F)F)NC(=O)c1cnc2c(F)cccc2c1` [Compound 12] showed an inhibition at 6.7 ppm of no less than 70%. Molecule `CC(C)CC(C)(Cc1cccc(F)c1)NC(=O)c1cnc2c(F)cccc2c1` (centres unmarked) [Compound 6] has an inhibition at 6.7 ppm of no less than 70%. `C=C(Cl)C[C@](C)(Cc1ccccc1)NC(=O)c1cnc2c(F)cccc2c1` [Compound 13] showed an inhibition at 6.7 ppm of no less than 70%. `C=C(Cl)CC(C)(Cc1ccccc1)NC(=O)c1cnc2c(F)cccc2c1` (centres unmarked) [Compound 4] showed an inhibition at 6.7 ppm of no less than 70%. `CC(C)C[C@@](C)(Cc1ccccc1)NC(=O)c1cnc2c(F)c(F)ccc2c1` [Compound 16] was tested, and the inhibition at 6.7 ppm was no less than 70%. `C[C@](Cc1ccccc1)(CC(F)(F)F)NC(=O)c1cnc2c(F)cccc2c1` [Compound 11] was tested, and the inhibition at 6.7 ppm was no less than 70%. Work on `CC(C)CC(C)(Cc1ccccc1)NC(=O)c1cnc2c(F)cccc2c1` (centres unmarked) [Compound 2] yielded an inhibition at 6.7 ppm of no less than 70%. With `CC(C)C[C@](C)(Cc1ccccc1)NC(=O)c1cnc2c(F)cccc2c1` [Compound 9] the inhibition at 6.7 ppm was no less than 70%.
